# Experimental data as given in patent US20230096766A1, “AMINO ACID HAVING FUNCTIONAL GROUP CAPABLE OF INTERMOLECULAR HYDROGEN BONDING, PEPTIDE COMPOUND CONTAINING SAME AND METHOD FOR PRODUCTION THEREOF” (Chugai Seiyaku Kabushiki Kaisha, priority 2018, published 2023).
# *1 amine or outer side, *2 acyl side, *3 side chain or, on linkers, in order; H or OH if unused. Where a SMILES comes first, the peptide text is derived from it. Bridges are numbered along the chain shown (N, C = ends). [ ]: non-standard residue; d: D form. The star is where a group is joined. ξ: configuration not given here. NMeAla(4-thiazolyl) = CN[C@@H](Cc1cscn1)C(=O)O; NMeF = CN[C@@H](Cc1ccccc1)C(=O)O; NMeGABA = CN(CCCC(=O)[*:2])[*:1]; NMeβAla = CN(CCC(=O)[*:2])[*:1]; NMeD = CN[C@@H](CC(=O)O)C(=O)O; NMeL = CN[C@@H](CC(C)C)C(=O)O; NMeV = CN[C@H](C(=O)O)C(C)C; NMeA = CN[C@@H](C)C(=O)O; Piperidide = C1CCN(*)CC1; dNMeA = CN[C@H](C)C(=O)O; ξV = CC(C)C(N)C(=O)O; Sar = CNCC(=O)O; tBu = CC(C)(C)*
# Assay: in vitro
# Conditions: human, Caco-2, Caco-2 (cm/sec)
row,SMILES,Papp
1,CC(C)C[C@@H]1NC(=O)[C@H](Cc2ccccc2)N(C)C(=O)[C@H](CC(C)C)N(C)C(=O)CCN(C)C(=O)C[C@@H](C(=O)N2CCCCC2)NC(=O)[C@H](CC(C)C)N(C)C(=O)[C@H](Cc2ccccc2)N(C)C(=O)[C@H]([C@@H](C)O)NC(=O)[C@H](Cc2ccccc2)N(C)C1=O [pd207] ([NMeβAla][NMeL][NMeF]L[NMeF]T[NMeF][NMeL]D-Piperidide; lactam N-9),1.7 ×10⁻⁶ cm/s
2,CC(C)C[C@@H]1NC(=O)[C@H](Cc2ccccc2)N(C)C(=O)[C@H](COC(C)(C)C)NC(=O)[C@H](Cc2ccccc2)N(C)C(=O)[C@H](C)N(C)C(=O)[C@H](CC(C)C)N(C)C(=O)[C@@H](C)NC(=O)C[C@@H](C(=O)N2CCCCC2)N(C)C(=O)[C@H](Cc2ccccc2)N(C)C(=O)[C@H]([C@@H](C)O)NC(=O)[C@H](C(C)C)N(C)C1=O [pd208] ([dA][NMeL][NMeA][NMeF]S(tBu)[NMeF]L[NMeV]T[NMeF][NMeD]-Piperidide; lactam N-11),1.7 ×10⁻⁶ cm/s
3,CC(C)C[C@@H]1NC(=O)[C@H](Cc2ccccc2)N(C)C(=O)[C@H](C)NC(=O)C[C@@H](C(=O)N2CCCCC2)N(C)C(=O)[C@H](Cc2ccccc2)N(C)C(=O)[C@H](Cc2ccccc2)N(C)C(=O)[C@H](COC(C)(C)C)NC(=O)[C@H](CC(C)C)N(C)C(=O)CN(C)C(=O)[C@H]([C@@H](C)O)NC(=O)[C@H](CC(C)C)N(C)C1=O [pd209] (A[NMeF]L[NMeL]T[Sar][NMeL]S(tBu)[NMeF][NMeF][NMeD]-Piperidide; lactam N-11),1.7 ×10⁻⁶ cm/s
4,CC(C)C[C@H]1C(=O)N[C@@H](COC(C)(C)C)C(=O)N(C)[C@@H](Cc2ccccc2)C(=O)N(C)[C@@H](CC(C)C)C(=O)N[C@H](C(=O)N2CCCCC2)CC(=O)N[C@H](C(C)C)C(=O)N(C)[C@@H](Cc2ccccc2)C(=O)N[C@@H](C(C)C)C(=O)N(C)[C@@H](Cc2ccccc2)C(=O)N[C@@H]([C@@H](C)O)C(=O)N(C)CC(=O)N1C [pd210] ([dV][NMeF]V[NMeF]T[Sar][NMeL]S(tBu)[NMeF][NMeL]D-Piperidide; lactam N-11),1.6 ×10⁻⁶ cm/s
5,CC(C)C[C@H]1C(=O)N[C@H](C(=O)N(C)[C@@H](Cc2ccccc2)C(=O)N[C@@H](C)C(=O)N2CCCCC2)CC(=O)N(C)[C@@H](C)C(=O)N[C@@H]([C@@H](C)O)C(=O)N(C)[C@@H](C)C(=O)N(C)[C@@H](CC(C)C)C(=O)N[C@@H](C(C)C)C(=O)N(C)[C@@H](Cc2ccccc2)C(=O)N[C@@H](Cc2ccccc2)C(=O)N1C [pd212] ([NMeA]T[NMeA][NMeL]V[NMeF]F[NMeL]D[NMeF]A-Piperidide; lactam N-9),1.4 ×10⁻⁶ cm/s
6,CC(C)C[C@@H]1NC(=O)[C@H](Cc2ccccc2)N(C)C(=O)[C@H](COC(C)(C)C)NC(=O)[C@H](Cc2ccccc2)N(C)C(=O)[C@H](C)N(C)C(=O)[C@H](CC(C)C)N(C)C(=O)[C@H](C)N(C)C(=O)C[C@@H](C(=O)N2CCCCC2)N(C)C(=O)[C@H](Cc2ccccc2)N(C)C(=O)[C@H]([C@@H](C)O)NC(=O)[C@H](C(C)C)N(C)C1=O [pd213] ([NMeA][NMeL][NMeA][NMeF]S(tBu)[NMeF]L[NMeV]T[NMeF][NMeD]-Piperidide; lactam N-11),1.3 ×10⁻⁶ cm/s
7,CC(C)C[C@@H]1NC(=O)[C@H](Cc2ccccc2)N(C)C(=O)[C@H](COC(C)(C)C)NC(=O)[C@H](Cc2ccccc2)N(C)C(=O)[C@H](C)N(C)C(=O)[C@H](CC(C)C)N(C)C(=O)[C@@H]2CCCN2C(=O)C[C@@H](C(=O)N2CCCCC2)NC(=O)[C@H](Cc2ccccc2)N(C)C(=O)[C@H]([C@@H](C)O)NC(=O)[C@H](CC(C)C)N(C)C1=O [pd214] (P[NMeL][NMeA][NMeF]S(tBu)[NMeF]L[NMeL]T[NMeF]D-Piperidide; lactam N-11),1.2 ×10⁻⁶ cm/s
8,CC(C)C[C@@H]1NC(=O)[C@H](Cc2ccccc2)N(C)C(=O)C(C(C)C)NC(=O)C[C@@H](C(=O)N2CCCCC2)NC(=O)[C@H](Cc2ccccc2)N(C)C(=O)[C@H](Cc2ccccc2)N(C)C(=O)[C@H](COC(C)(C)C)NC(=O)[C@H](CC(C)C)N(C)C(=O)CN(C)C(=O)[C@H]([C@@H](C)O)NC(=O)[C@H](CC(C)C)N(C)C1=O (stereo partly drawn) [pd215] ([ξV][NMeF]L[NMeL]T[Sar][NMeL]S(tBu)[NMeF][NMeF]D-Piperidide; lactam N-11),1.2 ×10⁻⁶ cm/s
9,CC(C)C[C@H]1C(=O)N[C@@H](C(C)C)C(=O)N(C)[C@@H](Cc2ccccc2)C(=O)N(C)[C@@H](Cc2ccccc2)C(=O)N[C@@H](COC(C)(C)C)C(=O)N(C)[C@@H](CC(C)C)C(=O)N[C@@H]([C@@H](C)O)C(=O)N(C)[C@@H](Cc2ccccc2)C(=O)N(C)[C@@H](CC(C)C)C(=O)N[C@H](C(=O)N2CCCCC2)CC(=O)N(C)CCCC(=O)N1C [pd216] ([NMeGABA][NMeL]V[NMeF][NMeF]S(tBu)[NMeL]T[NMeF][NMeL]D-Piperidide; lactam N-11),1.2 ×10⁻⁶ cm/s
10,CC(C)C[C@@H]1NC(=O)[C@H](Cc2ccccc2)N(C)C(=O)[C@H](C)NC(=O)C[C@@H](C(=O)N2CCCCC2)NC(=O)[C@H](Cc2ccccc2)N(C)C(=O)[C@H](Cc2ccccc2)N(C)C(=O)[C@H](COC(C)(C)C)NC(=O)[C@H](CC(C)C)N(C)C(=O)CN(C)C(=O)[C@H]([C@@H](C)O)NC(=O)[C@H](CC(C)C)N(C)C1=O [pd217] (A[NMeF]L[NMeL]T[Sar][NMeL]S(tBu)[NMeF][NMeF]D-Piperidide; lactam N-11),1.1 ×10⁻⁶ cm/s
11,CC(C)C[C@@H]1NC(=O)[C@H](CC(C)C)N(C)C(=O)[C@H](C)N(C)C(=O)C[C@@H](C(=O)N(C)[C@@H](Cc2ccccc2)C(=O)N[C@@H](C)C(=O)N2CCCCC2)NC(=O)[C@H]([C@@H](C)O)NC(=O)[C@H](CC(C)C)N(C)C(=O)[C@H](Cc2ccccc2)NC(=O)[C@H](Cc2ccccc2)N(C)C(=O)[C@H](CC(C)C)N(C)C1=O [pd218] ([NMeA][NMeL]L[NMeL][NMeF]F[NMeL]TD[NMeF]A-Piperidide; lactam N-9),1.1 ×10⁻⁶ cm/s
12,CC(C)C[C@@H]1NC(=O)[C@H](Cc2ccccc2)N(C)C(=O)[C@H](COC(C)(C)C)NC(=O)[C@H](Cc2ccccc2)N(C)C(=O)[C@H](C)N(C)C(=O)[C@H](CC(C)C)N(C)C(=O)[C@H]2CCCN2C(=O)C[C@@H](C(=O)N2CCCCC2)N(C)C(=O)[C@H](Cc2ccccc2)N(C)C(=O)[C@H]([C@@H](C)O)NC(=O)[C@H](C(C)C)N(C)C1=O [pd219] ([dP][NMeL][NMeA][NMeF]S(tBu)[NMeF]L[NMeV]T[NMeF][NMeD]-Piperidide; lactam N-11),1.1 ×10⁻⁶ cm/s
13,CC(C)C[C@@H]1NC(=O)[C@H](Cc2ccccc2)N(C)C(=O)[C@H](COC(C)(C)C)NC(=O)[C@H](Cc2ccccc2)N(C)C(=O)[C@H](C)N(C)C(=O)[C@H](CC(C)C)N(C)C(=O)[C@@H](C)NC(=O)C[C@@H](C(=O)N2CCCCC2)NC(=O)[C@H](Cc2ccccc2)N(C)C(=O)[C@H]([C@@H](C)O)NC(=O)[C@H](CC(C)C)N(C)C1=O [pd220] ([dA][NMeL][NMeA][NMeF]S(tBu)[NMeF]L[NMeL]T[NMeF]D-Piperidide; lactam N-11),1.1 ×10⁻⁶ cm/s
14,CC(C)C[C@@H]1NC(=O)[C@H](Cc2ccccc2)N(C)C(=O)[C@@H](C(C)C)NC(=O)C[C@@H](C(=O)N2CCCCC2)NC(=O)[C@H](Cc2ccccc2)N(C)C(=O)[C@H](Cc2ccccc2)N(C)C(=O)[C@H](C(C)C)NC(=O)[C@H](CC(C)C)N(C)C(=O)CN(C)C(=O)[C@H]([C@@H](C)O)NC(=O)[C@H](CC(C)C)N(C)C1=O [pd221] ([dV][NMeF]L[NMeL]T[Sar][NMeL]V[NMeF][NMeF]D-Piperidide; lactam N-11),1.1 ×10⁻⁶ cm/s
15,CC(C)C[C@@H]1NC(=O)[C@H](Cc2ccccc2)N(C)C(=O)[C@H](CC(C)C)N(C)C(=O)[C@@H](C)N(C)C(=O)C[C@@H](C(=O)N2CCCCC2)NC(=O)[C@H](CC(C)C)N(C)C(=O)[C@H](Cc2ccccc2)N(C)C(=O)[C@H]([C@@H](C)O)NC(=O)[C@H](Cc2ccccc2)N(C)C1=O [pd223] ([dNMeA][NMeL][NMeF]L[NMeF]T[NMeF][NMeL]D-Piperidide; lactam N-9),1.1 ×10⁻⁶ cm/s

# Same assay, conditions: human, Caco-2, Caco-2 (cm/sec) Papp
row,SMILES,Papp
1,CC(C)C[C@@H]1NC(=O)[C@H](Cc2ccccc2)N(C)C(=O)[C@H](C)N(C)C(=O)C[C@@H](C(=O)N2CCCCC2)NC(=O)[C@H](CC(C)C)N(C)C(=O)[C@H](Cc2ccccc2)N(C)C(=O)[C@H](Cc2ccccc2)NC(=O)[C@H](Cc2cscn2)N(C)C(=O)[C@H](C)N(C)C(=O)[C@H]([C@@H](C)O)NC(=O)[C@H](CC(C)C)N(C)C1=O [pd226] ([NMeA][NMeF]L[NMeL]T[NMeA][NMeAla(4-thiazolyl)]F[NMeF][NMeL]D-Piperidide; lactam N-11),0.68 ×10⁻⁶ cm/s
2,CC(C)C[C@@H]1NC(=O)[C@H](Cc2ccccc2)N(C)C(=O)C[C@@H](C(=O)N2CCCCC2)NC(=O)[C@H](CC(C)C)N(C)C(=O)CN(C)C(=O)[C@H]([C@@H](C)O)NC(=O)[C@H](Cc2ccccc2)N(C)C(=O)[C@H](Cc2ccccc2)N(C)C(=O)[C@H](CC(C)C)NC(=O)[C@H](Cc2ccccc2)N(C)C(=O)[C@H](CC(C)C)N(C)C1=O [pd227] ([NMeF]L[NMeL][NMeF]L[NMeF][NMeF]T[Sar][NMeL]D-Piperidide; lactam N-11),0.61 ×10⁻⁶ cm/s
3,CC(C)C[C@@H]1NC(=O)[C@H](CC(C)C)N(C)C(=O)C[C@@H](C(=O)N2CCCCC2)NC(=O)[C@H](CC(C)C)N(C)C(=O)CN(C)C(=O)[C@H]([C@@H](C)O)NC(=O)[C@H](Cc2cscn2)N(C)C(=O)[C@H](Cc2ccccc2)N(C)C(=O)[C@H](Cc2ccccc2)NC(=O)[C@H](Cc2ccccc2)N(C)C(=O)[C@H](CC(C)C)N(C)C1=O [pd228] ([NMeL]L[NMeL][NMeF]F[NMeF][NMeAla(4-thiazolyl)]T[Sar][NMeL]D-Piperidide; lactam N-11),0.58 ×10⁻⁶ cm/s
4,CC(C)C[C@@H]1NC(=O)[C@H](Cc2ccccc2)N(C)C(=O)[C@H](C(C)C)N(C)C(=O)C[C@@H](C(=O)N2CCCCC2)NC(=O)[C@H]([C@@H](C)O)NC(=O)[C@H](Cc2ccccc2)N(C)C(=O)[C@H](Cc2ccccc2)NC(=O)[C@H](Cc2ccccc2)N(C)C(=O)CN(C)C(=O)[C@H](C)N(C)C(=O)[C@H](CC(C)C)N(C)C1=O [pd229] ([NMeV][NMeF]L[NMeL][NMeA][Sar][NMeF]F[NMeF]TD-Piperidide; lactam N-11),0.41 ×10⁻⁶ cm/s
5,CC(C)C[C@@H]1NC(=O)[C@H](Cc2ccccc2)N(C)C(=O)[C@H]([C@@H](C)O)NC(=O)[C@H](Cc2ccccc2)NC(=O)[C@H](Cc2ccccc2)N(C)C(=O)C[C@@H](C(=O)N2CCCCC2)NC(=O)[C@H](C)N(C)C(=O)[C@H](CC(C)C)N(C)C(=O)CN(C)C(=O)[C@H](CC(C)C)N(C)C(=O)[C@H](Cc2ccccc2)N(C)C1=O [pd230] ([NMeF]FT[NMeF]L[NMeF][NMeL][Sar][NMeL][NMeA]D-Piperidide; lactam N-11),0.25 ×10⁻⁶ cm/s
